The values below come from patent publication US11802111B2, “Cyclobutyl amide monoacylglycerol lipase modulators” (Janssen Pharmaceutica NV, priority 2020, dated 2023).

pIC50: −log10 of the molar value.

Sequence of human MGL from HeLa cells (Q99685 whole entry): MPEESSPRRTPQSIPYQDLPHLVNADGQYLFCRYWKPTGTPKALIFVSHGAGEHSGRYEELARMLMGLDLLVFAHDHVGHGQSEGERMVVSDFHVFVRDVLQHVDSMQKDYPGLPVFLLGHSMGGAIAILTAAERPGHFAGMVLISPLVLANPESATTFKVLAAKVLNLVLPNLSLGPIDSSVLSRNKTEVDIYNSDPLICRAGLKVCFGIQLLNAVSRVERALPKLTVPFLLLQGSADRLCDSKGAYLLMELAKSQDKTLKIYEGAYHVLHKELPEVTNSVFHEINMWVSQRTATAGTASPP

This assay concerns the target human MGL from HeLa cells (Homo sapiens (Human), UniProt Q99685). In words: MGL in vitro activity assay ([glycerol-1,3-3H]-oleoyl glycerol hydrolysis, activated carbon filtration). Type of assay: biochemical. Particulars: 300 nM [Glycerol-1,3-3H]-oleoyl glycerol, one hour. The method, boiled down: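 Activity measured as tritium in the flow-through after activated carbon filtration of a 1 h reaction containing 300 nM 3H-oleoyl glycerol, compound and HeLa-derived human MGL. Compounds screened at 10 μM; IC50 series start at an empirically chosen highest concentration.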
`COc1cc(Cl)cnc1OC1CCC2(CC1)CN(C(=O)[C@H]1C[C@@](C)(O)C1)C2` [Example 463, (7-((5-Chloro-3-methoxypyridin-2-yl)oxy)-2-azaspiro[3.5]nonan-2-yl)((1s,3s)-3-hydroxy-3-methylcyclobutyl)methanone] showed a pIC50 of 8.01.

As for `Cn1ncc2ccc(CC3CCC4(CC3)CN(C(=O)[C@H]3C[C@@](C)(O)C3)C4)nc21` [Example 403, ((1s,3s)-3-Hydroxy-3-methylcyclobutyl)(7-((1-methyl-1H-pyrazolo[3,4-b]pyridin-6-yl)methyl)-2-azaspiro[3.5]nonan-2-yl)methanone], the negative logarithm of the IC50 (pIC50) is 6.35.

As for `C[C@]1(O)C[C@@H](C(=O)N2CC3(CCC(c4cn5ccccc5n4)CC3)C2)C1` [Example 391], the pIC50 is 5.90.

Consider `CC(C)(C)c1ccc(OC2CCC3(C2)CN(C(=O)[C@H]2C[C@@](C)(O)C2)C3)cc1` (mixture of isomers) [Example 240, (rac)-(6-(4-(tert-Butyl)phenoxy)-2-azaspiro[3.4]octan-2-yl)((1s,3s)-3-hydroxy-3-methylcyclobutyl)methanone], for which the pIC50 was 6.91.

Regarding `Cc1cnc(OC2CCC3(CC2)CN(C(=O)[C@H]2C[C@@](C)(O)C2)C3)c(F)c1` [Example 432, (7-((3-Fluoro-5-methylpyridin-2-yl)oxy)-2-azaspiro[3.5]nonan-2-yl)((1s,3s)-3-hydroxy-3-methylcyclobutyl)methanone], the negative-log IC50 (pIC50) is 7.15.

For `Cc1ccc(C2CCC3(C2)CN(C(=O)[C@H]2C[C@@](C)(O)C2)C3)c(C)c1` (mixture of isomers) [Example 14, (rac)-(6-(2,4-Dimethylphenyl)-2-azaspiro[3.4]octan-2-yl)((1s,3s)-3-hydroxy-3-methylcyclobutyl)methanone], the negative logarithm of the IC50 (pIC50) is 7.59.

In the case of `Cc1ccc2ccn(CC3CC4(C3)CN(C(=O)[C@H]3C[C@@](C)(O)C3)C4)c2n1` [Example 288, ((1s,3s)-3-Hydroxy-3-methylcyclobutyl)(6-((6-methyl-1H-pyrrolo[2,3-b]pyridin-1-yl)methyl)-2-azaspiro[3.3]heptan-2-yl)methanone], the pIC50 is 7.59.

In the case of `CCc1cccc(C2CCC3(CC2)CN(C(=O)[C@H]2C[C@@](C)(O)C2)C3)c1OC` [Example 144, (7-(3-Ethyl-2-methoxyphenyl)-2-azaspiro[3.5]nonan-2-yl)((1s,3s)-3-hydroxy-3-methylcyclobutyl)methanone], the pIC50 was 7.80.

As to `Cc1nc(CC2CC3(C2)CN(C(=O)[C@H]2C[C@@](C)(O)C2)C3)ccc1OC(F)F` [Example 280, (6-((5-(Difluoromethoxy)-6-methylpyridin-2-yl)methyl)-2-azaspiro[3.3]heptan-2-yl)((1s,3s)-3-hydroxy-3-methylcyclobutyl)methanone], the pIC50 is 7.43.

In the case of `CC(C)c1ccc(OC2CCC3(CC2)CN(C(=O)[C@H]2C[C@@](C)(O)C2)C3)cc1` [Example 242, ((1s,3s)-3-Hydroxy-3-methylcyclobutyl)(7-(4-isopropylphenoxy)-2-azaspiro[3.5]nonan-2-yl)methanone], the pIC50 was 8.20.

Compound `COc1cc([C@@H]2CCC3(C2)CN(C(=O)[C@H]2C[C@@](C)(O)C2)C3)ccc1C` (stereo in doubt) [Example 18, ((1s,3*S)-3-Hydroxy-3-methylcyclobutyl)((*R)-6-(3-methoxy-4-methylphenyl)-2-azaspiro[3.4]octan-2-yl)methanone] showed a pIC50 of 7.19.

The compound `C[C@]1(O)C[C@@H](C(=O)N2CC3(CC[C@H](Cc4cccc(C(F)(F)F)c4)C3)C2)C1` (stereo in doubt) [Example 177, ((1s,3*S)-3-Hydroxy-3-methylcyclobutyl)((*R)-6-(3-(trifluoromethyl)benzyl)-2-azaspiro[3.4]octan-2-yl)methanone] had a pIC50 of 7.85.

`C[C@]1(O)C[C@@H](C(=O)N2CC3(CCC(c4cccc5nccn45)CC3)C2)C1` [Example 390] showed a pIC50 of 6.14.

Compound `C[C@]1(O)C[C@@H](C(=O)N2CC3(CC(c4ccc5cnccc5c4)C3)C2)C1` [Example 31, ((1s,3s)-3-Hydroxy-3-methylcyclobutyl)(6-(isoquinolin-6-yl)-2-azaspiro[3.3]heptan-2-yl)methanone] gave a pIC50 of 5.80.

Consider `Cc1cc(C)cc(C2CCC3(CC2)CN(C(=O)[C@H]2C[C@@](C)(O)C2)C3)c1` [Example 147, (7-(3,5-Dimethylphenyl)-2-azaspiro[3.5]nonan-2-yl)((1s,3s)-3-hydroxy-3-methylcyclobutyl)methanone], for which the pIC50 was 8.19.

`C[C@]1(O)C[C@@H](C(=O)N2CC3(CCC(Cc4cccc(C(F)F)c4)CC3)C2)C1` [Example 163, (7-(3-(Difluoromethyl)benzyl)-2-azaspiro[3.5]nonan-2-yl)((1s,3s)-3-hydroxy-3-methylcyclobutyl)methanone] had a negative logarithm of the IC50 (pIC50) of 7.21.

Compound `C[C@]1(O)C[C@@H](C(=O)N2CC3(CCC(c4ccc(F)c(C5CC5)c4)C3)C2)C1` (mixture of isomers) [Example 108, (rac)-(6-(3-Cyclopropyl-4-fluorophenyl)-2-azaspiro[3.4]octan-2-yl)((1s,3s)-3-hydroxy-3-methylcyclobutyl)methanone] showed a pIC50 of 7.85.

`COC1(Cc2ccccc2)CC2(CN(C(=O)[C@H]3C[C@@](C)(O)C3)C2)C1` [Example 270, (6-Benzyl-6-methoxy-2-azaspiro[3.3]heptan-2-yl)((1s,3s)-3-hydroxy-3-methylcyclobutyl)methanone] had a pIC50 of 5.48.

Compound `CCOc1nc(OC2CCC3(CC2)CN(C(=O)[C@H]2C[C@@](C)(O)C2)C3)ccc1C(F)(F)F` [Example 459, (7-((6-Ethoxy-5-(trifluoromethyl)pyridin-2-yl)oxy)-2-azaspiro[3.5]nonan-2-yl)((1s,3s)-3-hydroxy-3-methylcyclobutyl)methanone] showed a pIC50 of 9.66.

For `Cn1ncc2ccc(CC3CCC4(CC3)CN(C(=O)[C@H]3C[C@@](C)(O)C3)C4)cc21` [Example 402, ((1s,3s)-3-Hydroxy-3-methylcyclobutyl)(7-((1-methyl-1H-indazol-6-yl)methyl)-2-azaspiro[3.5]nonan-2-yl)methanone], the pIC50 was 6.73.

In the case of `Cc1c(OC(C)C)cccc1C1CCC2(CC1)CN(C(=O)[C@H]1C[C@@](C)(O)C1)C2` [Example 362, ((1s,3s)-3-Hydroxy-3-methylcyclobutyl)(7-(3-isopropoxy-2-methylphenyl)-2-azaspiro[3.5]nonan-2-yl)methanone], the pIC50 is 8.82.

As for `C[C@]1(O)C[C@@H](C(=O)N2CC3(CCC(c4cccc(C5CC5)c4)C3)C2)C1` (mixture of isomers) [Example 58, (rac)-(6-(3-Cyclopropylphenyl)-2-azaspiro[3.4]octan-2-yl)((1s,3s)-3-hydroxy-3-methylcyclobutyl)methanone], the pIC50 is 7.39.

Turning to `C[C@]1(O)C[C@@H](C(=O)N2CC3(CC(c4cccc(C5CC5)c4)C3)C2)C1` [Example 20, (6-(3-Cyclopropylphenyl)-2-azaspiro[3.3]heptan-2-yl)((1s,3s)-3-hydroxy-3-methylcyclobutyl)methanone], the pIC50 is 7.43.

As for `CC(F)(F)c1ccc(OC2CCC3(CC2)CN(C(=O)[C@H]2C[C@@](C)(O)C2)C3)nc1` [Example 422, (7-((5-(1,1-Difluoroethyl)pyridin-2-yl)oxy)-2-azaspiro[3.5]nonan-2-yl)((1s,3s)-3-hydroxy-3-methylcyclobutyl)methanone], the negative-log IC50 (pIC50) is 7.62.

Compound `Cn1cc(CC2CC3(C2)CN(C(=O)[C@H]2C[C@@](C)(O)C2)C3)c(C(F)(F)F)n1` [Example 225, ((1s,3s)-3-Hydroxy-3-methylcyclobutyl)(6-((1-methyl-3-(trifluoromethyl)-1H-pyrazol-4-yl)methyl)-2-azaspiro[3.3]heptan-2-yl)methanone] gave a pIC50 of 6.92.

In turn, `C[C@]1(O)C[C@@H](C(=O)N2CC3(CC[C@H](c4ccc(C(F)(F)F)cc4)C3)C2)C1` (stereo in doubt) [Example 57, ((1s,3*R)-3-Hydroxy-3-methylcyclobutyl)((*S)-6-(4-(trifluoromethyl)phenyl)-2-azaspiro[3.4]octan-2-yl)methanone] had a pIC50 of 7.62.

The compound `C[C@]1(O)C[C@@H](C(=O)N2CC3(CCC(c4cccc(OC(F)(F)F)c4)C3)C2)C1` (mixture of isomers) [Example 40, (rac)-((1s,3s)-3-Hydroxy-3-methylcyclobutyl)(6-(3-(trifluoromethoxy)phenyl)-2-azaspiro[3.4]octan-2-yl)methanone] had a pIC50 of 7.64.

With `Cc1cc(C2CC2)cc(C2CCC3(CC2)CN(C(=O)[C@H]2C[C@@](C)(O)C2)C3)c1` [Example 143, (7-(3-Cyclopropyl-5-methylphenyl)-2-azaspiro[3.5]nonan-2-yl)((1s,3s)-3-hydroxy-3-methylcyclobutyl)methanone], the pIC50 was 8.35.

In turn, `Cn1cc(C2CCC3(C2)CN(C(=O)[C@H]2C[C@@](C)(O)C2)C3)c(C(F)(F)F)n1` (mixture of isomers) [Example 100, (rac)-((1s,3s)-3-Hydroxy-3-methylcyclobutyl)(6-(1-methyl-3-(trifluoromethyl)-1H-pyrazol-4-yl)-2-azaspiro[3.4]octan-2-yl)methanone] had a pIC50 of 5.05.

For the compound `C[C@]1(O)C[C@@H](C(=O)N2CC3(CC(Cc4ccc(C5CC5)cc4)C3)C2)C1` [Example 219, (6-(4-Cyclopropylbenzyl)-2-azaspiro[3.3]heptan-2-yl)((1s,3s)-3-hydroxy-3-methylcyclobutyl)methanone], the negative-log IC50 (pIC50) was 8.92.

In turn, `C[C@]1(O)C[C@@H](C(=O)N2CC3(CC(Cc4cccc(C(F)(F)F)n4)C3)C2)C1` [Example 223, ((1s,3s)-3-Hydroxy-3-methylcyclobutyl)(6-((6-(trifluoromethyl)pyridin-2-yl)methyl)-2-azaspiro[3.3]heptan-2-yl)methanone] had a pIC50 of 6.77.

`CC[C@]1(O)C[C@@H](C(=O)N2CC3(CCC(c4cccc(C(C)(C)C)c4)C3)C2)C1` (mixture of isomers) [Example 126, (rac)-(6-(3-(tert-Butyl)phenyl)-2-azaspiro[3.4]octan-2-yl)((1r,3s)-3-ethyl-3-hydroxycyclobutyl)methanone]: the negative logarithm of the IC50 (pIC50) is 8.12.

For orientation: pIC50 means the negative decadic logarithm of the IC50, by convention in mol/L. Higher therefore signals a low IC50.
